Measured values from PMC5218480 (PLoS ONE, 2017).

System: MV-4-11 cells
Assay: Gene expression microarray analysis (Affymetrix PrimeView) and GSEA
Format: cell-based, human
Design: RFU PODN (11730768_x_at) / Fold change /veh PODN (11730768_x_at) / RFU LINC00158 (11744669_a_at) / Fold change /veh LINC00158 (11744669_a_at) / RFU DUSP10 (11751237_a_at) / Fold change /veh DUSP10 (11751237_a_at) / RFU ID3 (11757404_x_at) / Fold change /veh ID3 (11757404_x_at) / RFU PLEKHG5 (11737974_s_at) / Fold change /veh PLEKHG5 (11737974_s_at) / RFU LRRC4B (11730491_at) / Fold change /veh LRRC4B (11730491_at) / RFU GIMAP4 (11747438_a_at) / Fold change /veh GIMAP4 (11747438_a_at) / RFU KRT8 (11758183_x_at) / Fold change /veh KRT8 (11758183_x_at) / RFU CNN1 (11734310_a_at) / Fold change /veh CNN1 (11734310_a_at) / RFU VPS37D (11726825_at) / Fold change /veh VPS37D (11726825_at) / RFU C10orf10 (11716522_x_at) / Fold change /veh C10orf10 (11716522_x_at) / RFU KIR2DL2 /// KIR2DL4 /// KIR2DL5A /// KIR2DL5B /// KIR2DS1 /// KIR2DS2 /// KIR2DS3 /// KIR2DS4 /// KIR3DL3 /// KIR3DL3 /// KIR3DS1 (11738374_at) / Fold change /veh KIR2DL2 /// KIR2DL4 /// KIR2DL5A /// KIR2DL5B /// KIR2DS1 /// KIR2DS2 /// KIR2DS3 /// KIR2DS4 /// KIR3DL3 /// KIR3DL3 /// KIR3DS1 (11738374_at) / RFU C1QL1 (11718748_at) / Fold change /veh C1QL1 (11718748_at) / RFU TMPRSS4 (11747572_a_at) / Fold change /veh TMPRSS4 (11747572_a_at) / RFU HAMP (11756126_x_at) / Fold change /veh HAMP (11756126_x_at) / RFU RNFT2 (11725882_a_at) / Fold change /veh RNFT2 (11725882_a_at) / RFU NR4A2 (11747474_a_at) / Fold change /veh NR4A2 (11747474_a_at) / RFU ABCC12 (11746883_a_at) / Fold change /veh ABCC12 (11746883_a_at) / RFU TMEM136 (11760407_x_at) / Fold change /veh TMEM136 (11760407_x_at) / RFU CLDN22 /// WWC2 (11732394_at) / Fold change /veh CLDN22 /// WWC2 (11732394_at) / RFU HLA-DPB1 (11760878_x_at) / Fold change /veh HLA-DPB1 (11760878_x_at) / RFU SPINT1 (11716480_a_at) / Fold change /veh SPINT1 (11716480_a_at) / RFU GAP43 (11754022_s_at) / Fold change /veh GAP43 (11754022_s_at) / RFU A4GNT (11735810_at) / Fold change /veh A4GNT (11735810_at) / RFU PRB3 (11715151_x_at) / Fold change /veh PRB3 (11715151_x_at) / RFU TUBB4B (11761932_at) / Fold change /veh TUBB4B (11761932_at) / RFU CAPN14 (11732068_a_at) / Fold change /veh CAPN14 (11732068_a_at) / RFU TMCC2 (11721928_a_at) / Fold change /veh TMCC2 (11721928_a_at) / RFU IRGQ (11745062_a_at) / Fold change /veh IRGQ (11745062_a_at) / RFU FAM174B (11720279_a_at) / Fold change /veh FAM174B (11720279_a_at) / RFU TMPRSS4 (11748680_a_at) / Fold change /veh TMPRSS4 (11748680_a_at) / RFU FAM212B (11763350_a_at) / Fold change /veh FAM212B (11763350_a_at) / RFU PLEKHG5 (11743358_a_at) / Fold change /veh PLEKHG5 (11743358_a_at) / RFU ZSCAN30 (11745921_a_at) / Fold change /veh ZSCAN30 (11745921_a_at) / RFU CMKLR1 (11741424_a_at) / Fold change /veh CMKLR1 (11741424_a_at) / RFU LOC101060620 /// MAPK8IP1 (11723275_at) / Fold change /veh LOC101060620 /// MAPK8IP1 (11723275_at) / RFU SPTSSB (11747773_x_at) / Fold change /veh SPTSSB (11747773_x_at) / RFU PRSS12 (11739890_at) / Fold change /veh PRSS12 (11739890_at) / RFU BIN1 (11741810_x_at) / Fold change /veh BIN1 (11741810_x_at) / RFU WNT11 (11732464_a_at) / Fold change /veh WNT11 (11732464_a_at) / RFU C10orf10 (11716521_a_at) / Fold change /veh C10orf10 (11716521_a_at) / RFU C5orf56 (11738089_at) / Fold change /veh C5orf56 (11738089_at) / RFU CYB561 (11721691_x_at) / Fold change /veh CYB561 (11721691_x_at) / RFU ANKRD19P (11752326_a_at) / Fold change /veh ANKRD19P (11752326_a_at) / RFU OR2T12 /// OR2T33 /// OR2T8 (11738714_s_at) / Fold change /veh OR2T12 /// OR2T33 /// OR2T8 (11738714_s_at) / RFU VCAN (11748164_a_at) / Fold change /veh VCAN (11748164_a_at) / RFU JSRP1 (11732532_at) / Fold change /veh JSRP1 (11732532_at) / RFU KRTAP10-11 (11738290_x_at) / Fold change /veh KRTAP10-11 (11738290_x_at) / RFU MYO3A (11730013_a_at) / Fold change /veh MYO3A (11730013_a_at) / RFU EBF3 (11725865_a_at) / Fold change /veh EBF3 (11725865_a_at) / RFU CAMK2N1 (11719241_x_at) / Fold change /veh CAMK2N1 (11719241_x_at) / RFU C5orf56 (11738088_a_at) / Fold change /veh C5orf56 (11738088_a_at) / RFU OLFML3 (11715873_a_at) / Fold change /veh OLFML3 (11715873_a_at) / RFU LOC100653217 /// NTM (11731650_a_at) / Fold change /veh LOC100653217 /// NTM (11731650_a_at) / RFU MAPK11 (11762145_a_at) / Fold change /veh MAPK11 (11762145_a_at) / RFU FIZ1 (11724087_x_at) / Fold change /veh FIZ1 (11724087_x_at) / RFU OASL (11726364_x_at) / Fold change /veh OASL (11726364_x_at) / RFU SOX15 (11748057_x_at) / Fold change /veh SOX15 (11748057_x_at) / RFU CD79A (11719716_a_at) / Fold change /veh CD79A (11719716_a_at) / RFU HIST1H1D (11736915_at) / Fold change /veh HIST1H1D (11736915_at) / RFU CASKIN2 (11723855_a_at) / Fold change /veh CASKIN2 (11723855_a_at) / RFU LOC730098 (11760151_x_at) / Fold change /veh LOC730098 (11760151_x_at) / RFU OR4N2 (11742367_at) / Fold change /veh OR4N2 (11742367_at) / RFU PRRT2 (11749266_a_at) / Fold change /veh PRRT2 (11749266_a_at) / RFU SNX32 (11753110_a_at) / Fold change /veh SNX32 (11753110_a_at) / RFU CDHR5 (11726645_a_at) / Fold change /veh CDHR5 (11726645_a_at) / RFU RCAN1 (11760418_a_at) / Fold change /veh RCAN1 (11760418_a_at) / RFU FAM167A (11723789_a_at) / Fold change /veh FAM167A (11723789_a_at) / RFU FAM26E (11764081_at) / Fold change /veh FAM26E (11764081_at) / RFU ISYNA1 (11749810_s_at) / Fold change /veh ISYNA1 (11749810_s_at) / RFU ACY1 (11761880_at) / Fold change /veh ACY1 (11761880_at) / RFU 11764098_at / Fold change /veh 11764098_at / RFU SAMD14 (11745864_x_at) / Fold change /veh SAMD14 (11745864_x_at) / RFU NPB (11741838_a_at) / Fold change /veh NPB (11741838_a_at) / RFU TMPRSS6 (11731388_a_at) / Fold change /veh TMPRSS6 (11731388_a_at) / RFU KRTAP10-2 (11738614_at) / Fold change /veh KRTAP10-2 (11738614_at) / RFU ARHGAP8 /// PRR5-ARHGAP8 (11727945_x_at) / Fold change /veh ARHGAP8 /// PRR5-ARHGAP8 (11727945_x_at) / RFU KRTAP5-7 /// NADSYN1 (11734609_at) / Fold change /veh KRTAP5-7 /// NADSYN1 (11734609_at) / RFU RASL12 (11751679_a_at) / Fold change /veh RASL12 (11751679_a_at) / RFU CDKN2B (11736163_a_at) / Fold change /veh CDKN2B (11736163_a_at) / RFU PRF1 (11729649_at) / Fold change /veh PRF1 (11729649_at) / RFU, ZNF638 /// ZNF638-IT1 / Fold change vs veh, ZNF638 /// ZNF638-IT1 / RFU, PANK3 / Fold change vs veh, PANK3 / RFU, SH3YL1 / Fold change vs veh, SH3YL1 / RFU, ZEB2 / Fold change vs veh, ZEB2 / RFU, NRIP1 / Fold change vs veh, NRIP1 / RFU, PTTG1IP / Fold change vs veh, PTTG1IP / RFU, CAPN2 / Fold change vs veh, CAPN2 / RFU, MED14 / Fold change vs veh, MED14 / RFU, SNORA58 / Fold change vs veh, SNORA58 / RFU, C1orf63 / Fold change vs veh, C1orf63 / RFU, LRRFIP1 / Fold change vs veh, LRRFIP1 / RFU, NDUFAF7 / Fold change vs veh, NDUFAF7 / RFU, SLC12A2 / Fold change vs veh, SLC12A2 / RFU, IBTK / Fold change vs veh, IBTK / RFU, ESF1 / Fold change vs veh, ESF1 / Fold change vs veh, TMEM50B / RFU, TAOK1 / Fold change vs veh, TAOK1 / RFU, ACBD3 / Fold change vs veh, ACBD3 / RFU, TMA16 / Fold change vs veh, TMA16 / RFU, RWDD3 / Fold change vs veh, RWDD3 / RFU, BCAT1 / Fold change vs veh, BCAT1 / RFU, EDEM3 / Fold change vs veh, EDEM3 / RFU, TMEM33 / Fold change vs veh, TMEM33 / RFU, WDR75 / Fold change vs veh, WDR75 / RFU, AHCTF1 / Fold change vs veh, AHCTF1 / RFU, TFRC / Fold change vs veh, TFRC / RFU, ZDHHC17 / Fold change vs veh, ZDHHC17 / RFU, NOM1 / Fold change vs veh, NOM1 / RFU, ARL8B / Fold change vs veh, ARL8B / RFU, ZBTB11 / Fold change vs veh, ZBTB11 / RFU, TAMM41 / Fold change vs veh, TAMM41 / RFU, KIAA1704 /// LOC100996395 / Fold change vs veh, KIAA1704 /// LOC100996395 / RFU, ING1 / Fold change vs veh, ING1 / RFU, TRMT61B / Fold change vs veh, TRMT61B / RFU, FUBP3 / Fold change vs veh, FUBP3 / RFU, TP53 / Fold change vs veh, TP53 / RFU, TNKS2 / Fold change vs veh, TNKS2 / RFU, ZFP14 / Fold change vs veh, ZFP14 / RFU, ACTR2 / Fold change vs veh, ACTR2 / RFU, PPP3R1 / Fold change vs veh, PPP3R1 / RFU, PIK3R1 / Fold change vs veh, PIK3R1 / RFU, HNRNPA1 / Fold change vs veh, HNRNPA1 / RFU, RNF170 / Fold change vs veh, RNF170 / RFU, ZNF28 / Fold change vs veh, ZNF28 / RFU, RNGTT / Fold change vs veh, RNGTT / RFU, OGT / Fold change vs veh, OGT / RFU, BRD1 / Fold change vs veh, BRD1 / RFU, MARS / Fold change vs veh, MARS / RFU, ZNF655 / Fold change vs veh, ZNF655 / RFU, FAHD1 / Fold change vs veh, FAHD1 / RFU, BDP1 / Fold change vs veh, BDP1 / RFU, LRRCC1 / Fold change vs veh, LRRCC1 / RFU, ARID1A / Fold change vs veh, ARID1A / RFU, ZNF146 / Fold change vs veh, ZNF146 / RFU, ZNF330 / Fold change vs veh, ZNF330 / RFU, GPN3 / Fold change vs veh, GPN3 / RFU, C9orf123 / Fold change vs veh, C9orf123 / RFU, N4BP2L2 / Fold change vs veh, N4BP2L2 / RFU, ARFIP1 / Fold change vs veh, ARFIP1 / RFU, FAM179B / Fold change vs veh, FAM179B / RFU, BCL10 / Fold change vs veh, BCL10 / RFU, UHRF1BP1L / Fold change vs veh, UHRF1BP1L / RFU, BET1 / Fold change vs veh, BET1 / RFU, CNOT2 / Fold change vs veh, CNOT2 / RFU, ZNF268 / Fold change vs veh, ZNF268 / Fold change vs veh, ZNF507 / RFU, DGCR2 / Fold change vs veh, DGCR2 / RFU, WDSUB1 / Fold change vs veh, WDSUB1 / Fold change vs veh, HSP90B1 /// MIR3652 / RFU, ADSS / Fold change vs veh, ADSS / RFU, GK / Fold change vs veh, GK / RFU, ZNF148 / Fold change vs veh, ZNF148 / RFU, TAF9 / Fold change vs veh, TAF9 / RFU, SLC1A5 / Fold change vs veh, SLC1A5 / RFU, SLMO2 / Fold change vs veh, SLMO2 / RFU, ABCC4 / Fold change vs veh, ABCC4 / RFU, LOC101060439 /// RAP1B / Fold change vs veh, LOC101060439 /// RAP1B / RFU, RFX7 / Fold change vs veh, RFX7 / RFU, GTPBP10 / Fold change vs veh, GTPBP10 / RFU, CNEP1R1 / Fold change vs veh, CNEP1R1 / RFU, BIVM-ERCC5 /// ERCC5 / Fold change vs veh, BIVM-ERCC5 /// ERCC5 / RFU, ILF3 / Fold change vs veh, ILF3 / RFU 11762660_at / Fold change /veh 11762660_at / RFU VCAN (11757783_s_at) / Fold change /veh VCAN (11757783_s_at) / RFU DDX43 (11728927_at) / Fold change /veh DDX43 (11728927_at) / RFU KRT8 (11758188_x_at) / Fold change /veh KRT8 (11758188_x_at) / RFU NKD1 (11759106_at) / Fold change /veh NKD1 (11759106_at) / RFU SRD5A1 (11742802_a_at) / Fold change /veh SRD5A1 (11742802_a_at) / RFU TPSAB1 /// TPSB2 (11721975_s_at) / Fold change /veh TPSAB1 /// TPSB2 (11721975_s_at) / RFU GSTM3 (11746129_a_at) / Fold change /veh GSTM3 (11746129_a_at) / RFU IL23R (11737362_x_at) / Fold change /veh IL23R (11737362_x_at) / RFU TMEM51 (11727254_a_at) / Fold change /veh TMEM51 (11727254_a_at) / RFU PIWIL2 (11732686_x_at) / Fold change /veh PIWIL2 (11732686_x_at) / RFU ORM1 (11744905_x_at) / Fold change /veh ORM1 (11744905_x_at) / RFU CCDC152 (11743942_at) / Fold change /veh CCDC152 (11743942_at) / RFU ECM1 (11717891_a_at) / Fold change /veh ECM1 (11717891_a_at) / RFU IL23R (11748794_a_at) / Fold change /veh IL23R (11748794_a_at) / RFU TNFAIP8L3 (11732012_x_at) / Fold change /veh TNFAIP8L3 (11732012_x_at) / RFU MBOAT4 (11741988_at) / Fold change /veh MBOAT4 (11741988_at) / RFU 11764193_at / Fold change /veh 11764193_at / RFU TMEM53 (11763286_at) / Fold change /veh TMEM53 (11763286_at) / RFU MAGEB2 (11727129_at) / Fold change /veh MAGEB2 (11727129_at) / RFU TMEM200A (11744735_a_at) / Fold change /veh TMEM200A (11744735_a_at) / RFU CCDC152 (11751479_a_at) / Fold change /veh CCDC152 (11751479_a_at) / RFU FAM211A (11726209_a_at) / Fold change /veh FAM211A (11726209_a_at) / RFU RGS16 (11746705_a_at) / Fold change /veh RGS16 (11746705_a_at) / RFU VCAN (11755009_s_at) / Fold change /veh VCAN (11755009_s_at) / RFU RHOB (11743442_s_at) / Fold change /veh RHOB (11743442_s_at) / RFU RGS16 (11720943_a_at) / Fold change /veh RGS16 (11720943_a_at) / RFU RGS16 (11720944_at) / Fold change /veh RGS16 (11720944_at) / RFU, VPS4B / Fold change vs veh, VPS4B / RFU, CREB1 / Fold change vs veh, CREB1 / RFU, DNAJC13 / Fold change vs veh, DNAJC13 / RFU, GNAQ / Fold change vs veh, GNAQ / RFU, CDK5R1 / Fold change vs veh, CDK5R1 / RFU, ZRANB3 / Fold change vs veh, ZRANB3 / RFU, CUL4A / Fold change vs veh, CUL4A / RFU, CCNY / Fold change vs veh, CCNY / RFU, UFL1 / Fold change vs veh, UFL1 / RFU, COG3 / Fold change vs veh, COG3 / RFU, DIAPH2 / Fold change vs veh, DIAPH2 / RFU, SKA2 / Fold change vs veh, SKA2 / RFU, AFF3 / Fold change vs veh, AFF3 / RFU, LMF1 / Fold change vs veh, LMF1 / RFU, IPO11 / Fold change vs veh, IPO11 / RFU, DFFB / Fold change vs veh, DFFB / RFU, FOXP1 / Fold change vs veh, FOXP1 / RFU, CARD8 / Fold change vs veh, CARD8 / RFU, STRN3 / Fold change vs veh, STRN3 / RFU, ADK / Fold change vs veh, ADK / RFU, RASSF2 / Fold change vs veh, RASSF2 / RFU, WIPF1 / Fold change vs veh, WIPF1 / RFU, LARP1B / Fold change vs veh, LARP1B / RFU, RASA1 / Fold change vs veh, RASA1 / RFU, RB1 / Fold change vs veh, RB1 / RFU, PPFIA1 / Fold change vs veh, PPFIA1 / RFU, MAT2A / Fold change vs veh, MAT2A / RFU, CCT5 / Fold change vs veh, CCT5 / RFU, WDR92 / Fold change vs veh, WDR92 / RFU, CUX1 / Fold change vs veh, CUX1 / RFU, TTC7A / Fold change vs veh, TTC7A / RFU, TMEM135 / Fold change vs veh, TMEM135 / RFU, DEPTOR / Fold change vs veh, DEPTOR / RFU, CPM / Fold change vs veh, CPM / RFU, DNAJB6 / Fold change vs veh, DNAJB6 / RFU, CACNA2D3 / Fold change vs veh, CACNA2D3 / RFU, DTX4 / Fold change vs veh, DTX4 / RFU, TFCP2 / Fold change vs veh, TFCP2 / RFU, GMCL1 /// GMCL1P1 / Fold change vs veh, GMCL1 /// GMCL1P1 / RFU, AEBP2 / Fold change vs veh, AEBP2 / RFU, SNHG1 /// SNORD22 /// SNORD25 /// SNORD26 /// SNORD27 /// SNORD28 /// SNORD29 /// SNORD31 / Fold change vs veh, SNHG1 /// SNORD22 /// SNORD25 /// SNORD26 /// SNORD27 /// SNORD28 /// SNORD29 /// SNORD31 / Fold change (Aza/veh), C12orf56 (ProbeSet 11735607_a_at) / Fold change (ACY-1035/veh), C12orf56 (ProbeSet 11735607_a_at) / Fold change (Aza/veh), FGFR1OP (ProbeSet 11751329_s_at) / Fold change (ACY-1035/veh), FGFR1OP (ProbeSet 11751329_s_at) / Fold change (Aza/veh), VPS36 (ProbeSet 11739960_a_at) / Fold change (ACY-1035/veh), VPS36 (ProbeSet 11739960_a_at) / RFU SYPL1 (11715823_x_at) / Fold change /veh SYPL1 (11715823_x_at) / RFU IGFBP7 (11715501_s_at) / Fold change /veh IGFBP7 (11715501_s_at) / RFU REEP3 (11722064_at) / Fold change /veh REEP3 (11722064_at) / RFU IGLL1 (11728026_x_at) / Fold change /veh IGLL1 (11728026_x_at): dose or concentration left out as unconfirmed
Conditions: MV-4-11 cells, 48 hours

Nc1ncn([C@@H]2O[C@H](CO)[C@@H](O)[C@H]2O)c(=O)n1 [azacitidine]
Fold change /veh IGFBP7 (11715501_s_at): 0.50
